Legend:
[1] = molecular target: T1, recombinant human Meningioma Expressed Antigen 5 (MGEA5), also referred to as O-GlcNAcase (OGA) (Homo sapiens, UniProt O60502); assay: OGA biochemical assay: inhibition of hydrolysis of fluorescein mono-ß-D-N-Acetyl-Glucosamine (FM-GlcNAc), fluorescence readout; settings: FM-GlcNAc substrate; for Emax: read-out: Enzymatic Emax (%); for IC50: read-out: Enzymatic hOGA, pIC50 (converted)
T1 construct: Full length OGA enzyme was purchased at OnGene (cat #TP322411); purchased OnGene (so in the source)
T1 sequence (O60502 1-916): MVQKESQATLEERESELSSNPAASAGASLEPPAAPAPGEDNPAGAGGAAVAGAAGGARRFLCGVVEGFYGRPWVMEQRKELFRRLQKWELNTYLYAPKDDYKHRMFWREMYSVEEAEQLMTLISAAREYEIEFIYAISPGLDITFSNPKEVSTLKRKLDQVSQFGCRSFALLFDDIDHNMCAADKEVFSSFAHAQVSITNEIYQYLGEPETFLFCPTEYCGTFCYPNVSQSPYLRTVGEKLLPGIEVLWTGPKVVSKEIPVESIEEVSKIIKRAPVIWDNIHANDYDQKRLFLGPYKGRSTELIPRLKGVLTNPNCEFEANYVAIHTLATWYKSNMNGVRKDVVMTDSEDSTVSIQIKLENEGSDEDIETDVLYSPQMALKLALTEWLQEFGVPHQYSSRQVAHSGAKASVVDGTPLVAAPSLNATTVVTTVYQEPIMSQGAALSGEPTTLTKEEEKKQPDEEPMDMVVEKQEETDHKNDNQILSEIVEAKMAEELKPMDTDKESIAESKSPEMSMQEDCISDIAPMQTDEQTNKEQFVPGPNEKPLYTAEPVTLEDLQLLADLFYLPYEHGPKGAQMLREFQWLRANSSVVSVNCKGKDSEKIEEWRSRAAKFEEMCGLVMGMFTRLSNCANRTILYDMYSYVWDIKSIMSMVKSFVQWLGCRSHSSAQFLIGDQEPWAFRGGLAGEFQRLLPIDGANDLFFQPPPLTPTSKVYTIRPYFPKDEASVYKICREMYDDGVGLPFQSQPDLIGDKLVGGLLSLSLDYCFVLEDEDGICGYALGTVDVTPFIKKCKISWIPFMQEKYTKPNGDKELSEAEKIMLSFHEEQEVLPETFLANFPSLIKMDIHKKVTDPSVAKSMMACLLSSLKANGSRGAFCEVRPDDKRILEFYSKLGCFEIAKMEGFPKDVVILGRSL
Description: The assay is based on the inhibition of the hydrolysis of fluorescein mono-ß-D-N-Acetyl-Glucosamine (FM-GlcNAc) (Mariappa et al. 2015, Biochem J 470:255) by the recombinant human Meningioma Expressed Antigen 5 (MGEA5), also referred to as O-GlcNAcase (OGA). The hydrolysis FM-GlcNAc (Marker Gene technologies, cat #M1485) results in the formation of ß-D-N-glucosamineacetate and fluorescein. The fluorescence of the latter can be measured at excitation wavelength 485 nm and emission wavelength 538 nm. An increase in enzyme activity results in an increase in fluorescence signal. Full length OGA enzyme was purchased at OnGene (cat #TP322411). The enzyme was stored in 25 mM Tris.HCl, pH 7.3, 100 mM glycine, 10% glycerol at −20° C. Thiamet G and GlcNAcStatin were tested as reference compounds (Yuzwa et al. 2008 Nature Chemical Biology 4:483; Yuzwa et al. 2012 Nature Chemical Biology 8:393). The assay was performed in 200 mM Citrate/phosphate buffer supplemented with 0.005% Tween-20. 35.6 g Na2HPO4 2 H2O (Sigma, #C0759) were dissolved in 1 L water to obtain a 200 mM solution. 19.2 g citric acid (Merck, #1.06580) was dissolved in 1 L water to obtain a 100 mM solution. pH of the sodium phosphate solution was adjusted with the citric acid solution to 7.2. The buffer to stop the reaction consists of a 500 mM Carbonate buffer, pH 11.0. 734 mg FM-GlcNAc were dissolved in 5.48 mL DMSO to obtain a 250 mM solution and was stored at −20° C. OGA was used at a 2 nM concentration and FM-GlcNAc at a 100 uM final concentration. Dilutions were prepared in assay buffer. 50 nl of a compound dissolved in DMSO was dispensed on Black Proxiplate™ 384 Plus Assay plates (Perkin Elmer, #6008269) and 3 μl fl-OGA enzyme mix added subsequently. Plates were pre-incubated for 60 min at room temperature and then 2 μl FM-GlcNAc substrate mix added. […] Plates were briefly centrifuged for 1 min at 1000 rpm and incubate at room temperature for 6 h. To stop the reaction 5 μl STOP buffer were added and plates centrifuge again 1 min at 1000 rpm. Fluorescence was quantified in the Thermo Scientific Fluoroskan Ascent or the PerkinElmer EnVision with excitation wavelength 485 nm and emission wavelength 538 nm. For analysis a best-fit curve is fitted by a minimum sum of squares method. From this an IC50 value and Hill coefficient was obtained. High control (no inhibitor) and low control (saturating concentrations of standard inhibitor) were used to define the minimum and maximum values.

[2] = tested on: OGA in HEK293 cells inducible for P301L mutant human Tau (isoform 2N4R); assay: OGA cellular assay: immunocytochemical detection of O-GlcNAcylated proteins (CTD110.6 antibody); assay type: cell-based; settings: Homo sapiens, HEK293, 6 h, 6 hours incubation; for Emax: maximum = Thiamet G 200 uM; for EC50: read-out: Cellular hOGA, pEC50 (converted)
Protocol: HEK293 cells inducible for P301L mutant human Tau (isoform 2N4R) were established at Janssen. Thiamet-G was used for both plate validation (high control) and as reference compound (reference EC50 assay validation). OGA inhibition is evaluated through the immunocytochemical (ICC) detection of O-GlcNAcylated proteins by the use of a monoclonal antibody (CTD110.6; Cell Signaling, #9875) detecting 0-GlcNAcylated residues as previously described (Dorfmueller et al. 2010 Chemistry & biology, 17:1250). Inhibition of OGA will result in an increase of O-GlcNAcylated protein levels resulting in an increased signal in the experiment. Cell nuclei are stained with Hoechst to give a cell culture quality control and a rough estimate of immediate compounds toxicity, if any. ICC pictures are imaged with a Perkin Elmer Opera Phenix plate microscope and quantified with the provided software Perkin Elmer Harmony 4.1.
Cells were propagated in DMEM high Glucose (Sigma, #D5796) following standard procedures. 2 days before the cell assay cells are split, counted and seeded in Poly-D-Lysine (PDL) coated 96-wells (Greiner, #655946) plate at a cell density of 12,000 cells per cm^2 (4,000 cells per well) in 100p of Assay Medium (Low Glucose medium is used to reduce basal levels of GlcNAcylation) (Park et al. 2014 The Journal of biological chemistry 289:13519). At the day of compound test medium from assay plates was removed and replenished with 90 µl of fresh Assay Medium. 10p of compounds at a 10 fold final concentration were added to the wells. Plates were centrifuged shortly before incubation in the cell incubator for 6 hours. DMSO concentration was set to 0.2%. Medium is discarded by applying vacuum. For staining of cells medium was removed and cells washed once with 100 μl D-PBS (Sigma, #D8537). From next step onwards unless other stated assay volume was always 50p and incubation was performed without agitation and at room temperature. Cells were fixed in 50 μl of a 4% paraformaldehyde (PFA, Alpha aesar, #043368) PBS solution for 15 minutes at room temperature. […] Before analysis samples were washed 2 times manually for 5 minutes in ICC base buffer.
Imaging is performed using Perkin Elmer Phenix Opera using a water 20× objective and recording 9 fields per well. Intensity readout at 488 nm is used as a measure of O-GlcNAcylation level of total proteins in wells. To assess potential toxicity of compounds nuclei were counted using the Hoechst staining. IC50-values are calculated using parametric non-linear regression model fitting. As a maximum inhibition Thiamet G at a 200 uM concentration is present on each plate. In addition, a concentration response of Thiamet G is calculated on each plate.

Enzymatic hOGA; pIC50 [1]	Emax [1] [%]	IC50 [1] [nM]	SMILES	Emax [2] [%]	EC50 [2] [nM]
8.58	101		Cc1cc(C(F)(F)F)cc(Cl)c1Nc1nccc2c1ccn2CC(C)(F)F [Compound 128]	90.3	12.9
7.14	99.1		Cc1ccnc(C)c1Nc1nccc2c1ccn2CC1CCCO1 (centres unmarked) [Compound 137]	60.4	513
	99	24	CCCCn1ccc2c(Nc3c(F)cncc3C3CC3)nccc21 [Compound 43]	50	676
8.26	101		Cc1ccnc(C(C)C)c1Nc1nccc2c1ccn2CC1CC(F)(F)C1 [Compound 117]	89.6	44.7
	101	3.09	CCCCn1ccc2c(Nc3c(C)ccc(C(=O)NC)c3C)nccc21 [Compound 58]	88	72.4
	100	1.62	Cc1cc(OC(F)F)nc(C)c1Nc1nccc2c1ccn2CC(F)(F)C(C)C [Compound 188]	89.1	~4.37
	101	2.24	CCCCn1ccc2c(Nc3c(Cl)cccc3Cl)nccc21 [Compound 71]	78	47.9
	104	3.8	CCCCn1ccc2c(Nc3c(C)cc(C)cc3C)nccc21 [Compound 68]	87	57.5
	98.2	3.02	Cc1ccnc(C(C)(C)F)c1Nc1nccc2c1ccn2CC(C)(F)F [Compound 205]	88.6	9.55
8.54	103		CCCCn1ccc2c(Nc3c(Cl)ccc4c3ccn4C)nccc21 [Compound 14]	80	182
	101	4.37	CCCCn1ccc2c(Nc3c(C)ccc(C(=O)N(C)C)c3C)nccc21 [Compound 59]	88	100
8.42	105		CCC(C)Cn1ccc2c(Nc3c(Cl)cccc3Cl)nccc21.Cl (centres unmarked) [Compound 9]	85	30.2
	102	3.39	Clc1cccc(Cl)c1Nc1nccc2c1ccn2Cc1ccon1 [Compound 172]	80.8	70.8
8.07	102		Cc1cc(C)c(Nc2nccc3c2ccn3CC(C)(F)F)c(OC(F)F)n1 [Compound 156]	70.9	45.7
8.67	100		Cc1cc(F)cc(C)c1Nc1nccc2c1ccn2CC(C)(F)F [Compound 126]	87.1	10.5
	86	2140	Cc1ccnc(C)c1Nc1nccc2c1ccn2CC(C)(C)C#N [Compound 84]	8	> 1000
	101	1.78	Cc1cc(OC(F)(F)F)cc(C)c1Nc1nccc2c1ccn2CC(F)(F)C(C)C [Compound 187]	96.4	8.71
7.18	101		CCCCn1ccc2c(Nc3c(C)ccc4cccnc34)nccc21 [Compound 15]	71	562
8.57	101		Cc1cc(Cl)cc(C)c1Nc1nccc2c1ccn2CC(C)(F)F [Compound 150]	82.1	5.37
	102	11.2	CCCCn1ccc2c(Nc3c(Cl)ccc4c3OCCO4)nccc21 [Compound 51]	76	117
	101	2.95	CCCCn1ccc2c(Nc3c(Cl)cc4c(c3C)OCCO4)nccc21 [Compound 76]	100	23.4
8.46	102		CC[C@H](O)Cn1ccc2c(Nc3c(C)cc(F)cc3C)nccc21 [Compound 145b]	85.7	26.9
	104	12	Clc1cccc(Cl)c1Nc1nccc2c1ccn2Cc1ncco1 [Compound 169]	67.5	550
	103	4.07	CCCCn1ccc2c(Nc3c(C)cc4c(c3C)CC(=O)N(C)C4)nccc21 [Compound 88]	95	10.7
7.61	104		FC1(F)CC1CCn1ccc2c(Nc3c(Cl)cccc3Cl)nccc21 (centres unmarked) [Compound 95]	63	525
	103	9.55	CCCCn1ccc2c(Nc3c(C)cncc3C)nccc21 [Compound 52]	72	26.9

Source: patent US20210277003A1, “OGA INHIBITOR COMPOUNDS” (Janssen Pharmaceutica NV, priority 2018, published 2021)
